Data reported in publication PMC8153610, “Oleacein Intestinal Permeation and Metabolism in Rats Using an In Situ Perfusion Technique” (Pharmaceutics, 2021).
Where two headings read alike, the source gives them in different places.

Experiments:
[1] = cited from earlier work
[2] = Metabolite profiling in lumen, plasma and ileum tissue after SPIP (LC–ESI–LTQ–Orbitrap–MS); type: in vivo
Procedure: The SPIP studies were performed in anesthetized rats according to the method described by López-Yerena and coworkers; the donor blood and surgical procedure (Figure 1) were as described in that study. Regarding the procedure of donor blood, the rats were anesthetized by isoflurane inhalation (2.5%), and the whole blood was collected via cardiac puncture. […]. In the case of the rats that underwent surgery, the rats received intraperitoneal administration of pentobarbital sodium (Dolethal) at a dose of 60 mg/kg, and a maintenance dose of isoflurane (1.5%) was given 50 min after the induction dose. Body temperature was maintained at 37 ± 0.5 °C throughout the experiment by means of a homeothermic blanket. An ileal segment of approximately 7–10 cm was cannulated. […] The phenol red included in the perfusion solution was used as non-absorbable marker for measuring water transport. To avoid the oxidation of OLEA, we carried out the SPIP experiments in a laboratory room with infrared light. Samples of both the intestinal lumen and mesenteric blood were collected simultaneously at 5 min intervals for 60 min. The outflow perfusate samples were collected in 2 mL amber vials and the blood was collected in pre-weighed lithium-heparinized tubes (BD Vacutainer). Next, the perfusate samples were centrifuged (7516× g for 10 min at 4 °C), and the tubes with blood samples were weighed and centrifuged (3000× g for 10 min at 4 °C). The supernatants were collected and immediately stored at −80 °C awaiting analysis by LC–ESI–LTQ–Orbitrap–MS.
Plasma: The extraction of OLEA and its metabolites was carried out with protein precipitation. Initially, the samples were thawed and centrifuged (11,000× g, 10 min at 4 °C). To precipitate proteins, we blended 100 µL of plasma with cold acetonitrile containing 2% of formic acid (1:5 v/v). Samples were vortex-mixed for 1 min and kept at −20 °C for 20 min. The samples were then centrifuged (11,000× g, 4 °C, 10 min), and finally 100 µL of the supernatant was transferred to vials for analysis.
Stability study and lumen samples: The stability and perfusate OLEA samples were defrosted and centrifuged (11,000× g, 4 °C, 10 min), and 100 µL of the upper phase was transferred to vials for analysis. […].
Ileum tissue: The intestinal segment perfunded with OLEA in the SPIP experiments was also analyzed to quantify the OLEA and its metabolites retained in the tissue. First, the intestinal segment was rinsed by several perfusions with TM and then cut into small sections and homogenized after the addition of water/acetonitrile (1:1 (v/v) with 0.1% ascorbic acid) with a small tissue disruptor (T10 basic ULTRA-TURRAX®, IKA laboratory technology, Staufen, Germany). The samples were sonicated in an ice bath (5 min), shaken for 1 min, and centrifuged (11,000× g, 4 °C, 10 min). To precipitate proteins, we blended 100 µL of the upper layer with cold acetonitrile containing 2% of formic acid (1:3 v/v). Samples were vortex-mixed for 1 min, kept at −20 °C for 20 min, and centrifuged again (11,000× g, 4 °C, 10 min) before analyzing the supernatant.
The quantification of OLEA and red phenol in the samples and the profiling and structural characterization of OLEA metabolites was carried out using LC–ESI–LTQ–Orbitrap–MS. LC separation was performed using an Accela chromatograph (Thermo Scientific, Hemel Hempstead, UK) equipped with a quaternary pump, a photodiode array detector, and a thermostated autosampler. A 5-μL sample aliquot was injected onto an Acquity^TM UPLC® BEH C18 Column (2.1 × 100 mm, i.d., 1.7 µm particle size) coupled to an Acquity^TM UPLC® BEH C18 Pre-Column (2.1 × 5 mm, i.d., 1.7 µm particle size) (Waters Corporation®, Wexford, Ireland) with the column temperature set at 50 °C. Eluent A was 0.05% (v/v) formic acid in water, and eluent B was 0.05% formic acid in methanol. […]. […]

[3] = Stability in the perfusion solution (transport medium) at 37 °C; type: physicochemical; details: for Presence of degradation products / derivatives in the perfusion solution (stability study): OLEA in transport medium, 60 min
Procedure: The transport medium (TM; pH 7, 9.7 g/L HBSS buffered with HEPES 10 mM) was used to infuse the compounds via the intestine. […] Red phenol was assayed at 0.1 mg/mL. The stability of these test compounds, sampled at different times, was monitored in the perfusion solution at 37 °C for 60 min. Stability study and lumen samples: The stability and perfusate OLEA samples were defrosted and centrifuged (11,000× g, 4 °C, 10 min), and 100 µL of the upper phase was transferred to vials for analysis.

[4] = Single-pass intestinal perfusion (SPIP) with mesenteric blood sampling: permeability and absorption; type: in vivo; details: ileum, SPIP in rats
Procedure: The transport medium (TM; pH 7, 9.7 g/L HBSS buffered with HEPES 10 mM) was used to infuse the compounds via the intestine. […] Red phenol was assayed at 0.1 mg/mL. The stability of these test compounds, sampled at different times, was monitored in the perfusion solution at 37 °C for 60 min.
Differences were considered significant at p < 0.05.

[5] = design: method as in PMID 26904279; details: oral administration 300 mg/kg in rats; cited from earlier work
[6] = cited from earlier work; remark: listed apart in the source
[7] = after OLEA perfusion (SPIP, 60 min)

In the case of COc1ccc2cc([C@H](C)C(=O)O)ccc2c1 [Naproxen], the “Peff ± SD” value ([1]; Colon) is given as 2.06 ± 1.04 × 10^−4 cm/s, the “Peff ± SD” value ([1]; Ileum, ref 56) is given as 1.78 ± 0.52 × 10^−4 cm/s and the “Peff ± SD” value ([1]; Ileum, ref 57) is given as 1.17 ± 0.23 × 10^−4 cm/s. The “Peff ± SD” value ([1]; Jejunum, ref 33) was 1.19 ± 0.12 × 10^−4 cm/s, the “Peff ± SD” value ([1]; Jejunum, ref 56) was 1.47 ± 0.25 × 10^−4 cm/s and the “Peff ± SD” value ([1]; Jejunum, ref 58) was 1.17 ± 0.23 × 10^−4 cm/s.
For C/C=C(/C=O)C(CC(=O)OCCc1ccc(O)c(OC)c1)CC(O)O (stereo not shown) [M8], the “Detection in lumen, plasma and ileum tissue samples” value (“Detection in lumen” for short) [2, 7] was “found in ileum tissue samples but not in the plasma and lumen”.
For C/C=C(/C=O)C(CC(=O)OCCc1ccc(O)c(O)c1)CC(O)O (stereo not shown) [M5], the “Presence of degradation products / derivatives in the perfusion solution (stability study)” value [3] was “traces” and the “Detection in lumen” value [2, 7] was “detected in lumen, plasma, and ileum tissue”.
For C/C=C(/C=O)C(CC(=O)O)CC(=O)OCCc1ccc(O)c(OC)c1 (stereo not shown) [M7], the “Detection in lumen” value [2, 7] was “detected in plasma and, after being secreted by an efflux membrane protein, in lumen samples”.
In the case of CC=C(C=O)C(CC(=O)OCCc1ccc(OC2OC(C(=O)O)C(O)C(O)C2O)c(OC)c1)CC(O)O (stereo not shown) [M11], the “Detection in lumen” value [2, 7] is reported as “detected in lumen and ileum tissue samples but not in plasma”.
In the case of C/C=C(/CO)C(CC=O)CC(=O)OCCc1ccc(O)c(O)c1 (stereo not shown) [M3], the “Detection in lumen” value [2, 7] is reported as “detected in lumen, plasma, and ileum tissue”.
With C/C=C(/C=O)C(CC(=O)O)CC(=O)OCCc1ccc(O)c(O)c1 (stereo not shown) [M4] the “Detection in lumen” value [2, 7] was “detected in lumen, plasma, and ileum tissue”, the “Metabolite level in plasma relative to lumen (fold higher)” value ([2]; after OLEA perfusion, at 60 min) was 29 fold and the “Time of highest concentration” value ([2]; plasma and lumen samples, after OLEA perfusion, p < 0.05) was 60 min.
For C/C=C(/C=O)[C@@H](CC=O)CC(=O)OCCc1ccc(O)c(O)c1 [OLEA, Oleacein], the “Absorption (%)” value ([4]; mean ± SD, n = 4) was 48.98 ± 12.27%, the “Mean permeability ratio (Peff) of OLEA/naproxen” value ([4]; p > 0.05) was 1.24 and the Effective intestinal permeability (Peff) at 60 min ([4]; rat, pH 7, luminal disappearance, mean ± SD, n = 4, read-out: Intestinal effective permeability coefficient (Peff) ± SD) was 183 ± 18 ×10⁻⁶ cm/s. For the same molecule, the “Stability in the perfusion solution” value ([3]; over 60 min, p > 0.05) was “remained stable”, the “Detection in portal plasma” value [5] was “did not observe” and the “log P (octanol/water)” value ([6]; ref 16) was 1.02. For the same molecule, the “log P (octanol/water)” value ([6]; ref 60) was 1.53.
For OCCc1ccc(O)c(O)c1 [M2, hydroxytyrosol], the “Presence of degradation products / derivatives in the perfusion solution (stability study)” value [3] was “absence”, the “Detection in lumen” value ([2]; rat, in vivo) was “found in lumen, plasma, and ileum tissue” and the “Time of highest concentration” value ([2]; rat, in vivo) was 55 min. For the same molecule, the “Metabolite level in plasma relative to lumen (fold higher)” value ([2]; rat, in vivo, 60 min) was 27 fold.
With C/C=C(/C=O)C(CC=O)CC(=O)OCCc1ccc(O)c(OC)c1 (stereo not shown) [M6] the “Detection in lumen” value [2, 7] was “found in ileum tissue samples but not in the plasma and lumen”.
With elenolic acid the “Detection in lumen” value [2, 7] was “not detected in any sample”.
In the case of CC=C(CO)C(CC=O)CC(=O)OCCc1ccc(OC2OC(C(=O)O)C(O)C(O)C2O)c(O)c1 (stereo not shown) [M9], the “Main product of phase II biotransformation” value ([2]; all the samples (plasma, lumen, ileum tissue)) is reported as “main product of phase II biotransformation reactions in all the samples”, the “Time of highest relative abundance” value ([2]; lumen samples, after OLEA perfusion, p < 0.05) is reported as 55 to 60 min and the “Time of highest relative abundance” value ([2]; plasma, after OLEA perfusion, p < 0.05) is reported as 45 to 60 min.
